# Laboratory results taken from patent US9539243B2, “Triazole compounds that modulate HSP90 activity” (Synta Pharmaceuticals Corp., priority 2008, dated 2017).
# System: Her2
# Assay: Her2 degradation in BT-474 cells by Western blot (Method 1)
# Assay type: cell-based, Human
# Conditions: 0.5 μM, overnight
# Protocol: Human high-Her2 breast carcinoma BT474 (HTB-20), SK-BR-3 (HTB-30) and MCF-7 breast carcinoma (HTB-22) from American Type Culture Collection, Va., USA were grown in Dulbecco's modified Eagle's medium with 4 mM L-glutamine and antibiotics (100 IU/ml penicillin and 100 μg/ml streptomycine; GibcoBRL). To obtain exponential cell growth, cells were trypsinized, counted and seeded at a cell density of 0.5×10^6 cells/ml regularly, every 3 days. All experiments were performed on day 1 after cell passage.
# BT-474 cells are treated with 0.5 μM, 2 μM, or 5 μM of 17AAG (a positive control) or 0.5 μM, 2 μM, or 5 μM of a compound of the invention overnight in DMEM medium. After treatment, each cytoplasmic sample is prepared from 1×10^6 cells by incubation of cell lysis buffer (#9803, Cell Signaling Technology) on ice for 10 minutes. The resulting supernatant used as the cytosol fractions is dissolved with sample buffer for SDS-PAGE and run on a SDS-PAGE gel, blotted onto a nitrocellulose membrane by using semi-dry transfer. Non-specific binding to nitrocellulose is blocked with 5% skim milk in TBS with 0.5% Tween at room temperature for 1 hour, then probed with anti-Her2/ErB2 mAb (rabbit IgG, #2242, Cell Signaling) and anti-Tubulin (T9026, Sigma) as housekeeping control protein. […]
smiles,measurement,value
"C=CCNC1=C2C[C@@H](C)C[C@H](OC)[C@H](O)[C@@H](C)/C=C(\C)[C@H](OC(N)=O)[C@@H](OC)/C=C\C=C(/C)C(=O)NC(=CC1=O)C2=O [Compound 17AAG, 17-allylamino-17-demethoxygeldanamycin]",degradation of Her2,partial degradation of Her2
